For one assay, the target named is human Gal-3 (hGal-3) (Homo sapiens (Human), UniProt P17931). The assay is described as follows: Competitive binding assay: biotinylated hGal-3 binding to microplate-adsorbed asialofetuin (ASF). Conditions: IC50 values from several measurements given as geomean. An outline of the steps: (§1)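 Biotinylated hGal-3 or hGal-1 (preferably cysteine-free Cys→Ser mutant), 300–1000 ng/mL, competes with compound for ASF-coated wells for 3 h at 4 °C. Bound lectin detected with streptavidin-peroxidase (80 ng/mL, 1 h, 4 °C) and ABTS by absorbance; IC50 reported as geomean of several runs.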
Sequence of human Gal-3 (hGal-3) (P17931 whole entry): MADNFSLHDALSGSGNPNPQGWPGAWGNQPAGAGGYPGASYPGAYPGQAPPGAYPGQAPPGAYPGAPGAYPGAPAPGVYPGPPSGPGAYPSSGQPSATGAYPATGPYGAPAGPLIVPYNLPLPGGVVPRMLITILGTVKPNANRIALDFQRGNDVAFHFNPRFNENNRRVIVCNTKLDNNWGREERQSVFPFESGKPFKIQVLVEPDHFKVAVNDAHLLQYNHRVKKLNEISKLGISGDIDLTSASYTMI

The next assay has as its target human Gal-1 (hGal-1) (Homo sapiens, UniProt P09382, C131S/C17S/C43S/C61S/C89S). Put plainly: Competitive binding assay: biotinylated hGal-1 binding to microplate-adsorbed asialofetuin (ASF). Particulars: IC50 values from several measurements given as geomean. Summed up: as §1

As usually defined, the IC50 is the point on the concentration scale where inhibition reaches its midpoint. Low readings indicate greater potency, high ones weaker potency. `CO[C@@H]1[C@@H](n2cc(-c3ccc(Br)c(F)c3F)nn2)[C@@H](O)[C@@H](CO)O[C@@H]1Cn1cc(C2(C)CC2)nn1` [Ex 4.2.23.]: the IC50 on human Gal-3 (hGal-3) amounted to 50 nM; at human Gal-1 (hGal-1), 2480 nM.

As for `CO[C@@H]1[C@@H](n2cc(-c3ccc(Br)c(F)c3F)nn2)[C@@H](O)[C@@H](CO)O[C@@H]1Cn1cc(C2CCCC2)nn1` [Ex 4.2.32.], the IC50 came to 60 nM on human Gal-3 (hGal-3) and 2680 nM on human Gal-1 (hGal-1).

Take `CO[C@@H]1[C@@H](n2cc(-c3ccc(Br)c(F)c3F)nn2)[C@@H](O)[C@@H](CO)O[C@@H]1Cn1cc(C2(O)CCCC2)nn1` [Ex 4.2.33.]: the IC50 at human Gal-3 (hGal-3) amounted to 100 nM; at human Gal-1 (hGal-1), 4110 nM.

As to `CO[C@@H]1[C@@H](n2cc(-c3ccc(Br)c(F)c3F)nn2)[C@@H](O)[C@@H](CO)O[C@@H]1Cn1cc(C(C)(C)O)nn1` [Ex 4.2.34.], the IC50 amounted to 100 nM at human Gal-3 (hGal-3) and 5490 nM at human Gal-1 (hGal-1).

For `CO[C@@H]1[C@@H](n2cc(-c3ccc(Br)c(F)c3F)nn2)[C@@H](O)[C@@H](CO)O[C@@H]1Cn1cc(C2(O)CCOCC2)nn1` [Ex 4.2.35.], the values for the IC50 at human Gal-3 (hGal-3) and on human Gal-1 (hGal-1) were 70 nM and 4600 nM, respectively.

With `CO[C@@H]1[C@@H](n2cc(-c3ccc(Br)c(F)c3F)nn2)[C@@H](O)[C@@H](CO)O[C@@H]1Cn1cc(C2(O)CC2)nn1` [Ex 4.2.36.], the IC50 is 130 nM at human Gal-3 (hGal-3) and 5910 nM at human Gal-1 (hGal-1).

Regarding `COC1=C(N2CC(c3ccc(Br)c(F)c3F)NN2)C(O)=C(CO)O[C@@H]1Cn1cc(C23CCC(NC(=O)OC(C)(C)C)(CC2)CC3)nn1` (stereo partly drawn) [Ex 4.2.37.], the IC50 at human Gal-3 (hGal-3) stood at 50 nM; at human Gal-1 (hGal-1) it was 11300 nM.

In the case of `CCC1(c2cn(C[C@H]3O[C@H](CO)[C@H](O)[C@H](n4cc(-c5ccc(Br)c(F)c5F)nn4)[C@H]3OC)nn2)COC1` [Ex 4.2.38.], the IC50 at human Gal-3 (hGal-3) is 50 nM; on human Gal-1 (hGal-1) it was 2260 nM.

As to `CO[C@@H]1[C@@H](n2cc(-c3ccc(Br)c(F)c3F)nn2)[C@@H](O)[C@@H](CO)O[C@@H]1Cn1cc(C23CCC(N)(CC2)CC3)nn1` [Ex 4.2.39.], the IC50 was found to be 60 nM on human Gal-3 (hGal-3) and 2190 nM on human Gal-1 (hGal-1).

Consider `CO[C@@H]1[C@@H](n2cc(-c3ccc(C#N)c(F)c3F)nn2)[C@@H](O)[C@@H](CO)O[C@@H]1Cc1cn(C2(C)COC2)nn1` [Ex 5.1.6.], for which the half-inhibitory concentration (IC50) is 70 nM at human Gal-3 (hGal-3) and 3990 nM on human Gal-1 (hGal-1).

For the compound `CO[C@@H]1[C@@H](n2cc(-c3ccc(C#N)c(F)c3F)nn2)[C@@H](O)[C@@H](CO)O[C@@H]1Cc1cn(C2(C(F)F)COC2)nn1` [Ex 5.1.53., 4-(1-((2R,3R,4S,5R,6R)-2-((1-(3-(Difluoromethyl)oxetan-3-yl)-1H-1,2,3-triazol-4-yl)methyl)-5-hydroxy-6-(hydroxymethyl)-3-methoxytetrahydro-2H-pyran-4-yl)-1H-1,2,3-triazol-4-yl)-2,3-difluorobenzonitrile], the IC50 at human Gal-3 (hGal-3) worked out at 60 nM; at human Gal-1 (hGal-1), 1350 nM.

On to `CO[C@@H]1[C@@H](n2cc(-c3ccc(C#N)c(F)c3F)nn2)[C@@H](O)[C@@H](CO)O[C@@H]1Cc1cn(C2(C(F)(F)F)COC2)nn1` [Ex 5.1.58.], for which the figures for the IC50 at human Gal-3 (hGal-3) and at human Gal-1 (hGal-1) were 70 nM and 1910 nM, respectively.

For the compound `CO[C@@H]1[C@@H](n2cc(-c3ccc(C#N)c(F)c3F)nn2)[C@@H](O)[C@@H](CO)O[C@@H]1Cc1cn([C@H]2CCOC[C@@H]2F)nn1` [Ex 5.1.66.CD], the IC50 came to 30 nM at human Gal-3 (hGal-3) and 1600 nM at human Gal-1 (hGal-1).

With `CO[C@@H]1[C@@H](n2cc(-c3ccc(Cl)c(F)c3F)nn2)[C@@H](O)[C@@H](CO)O[C@@H]1Cc1cn(C2(C)CC(F)C2)nn1` (stereo partly drawn) [Example 2.1.47.A, (2R,3R,4S,5R,6R)-4-(4-(4-chloro-2,3-difluorophenyl)-1H-1,2,3-triazol-1-yl)-6-((1-((1S,3S)-3-fluoro-1-methylcyclobutyl)-1H-1,2,3-triazol-4-yl)methyl)-2-(hydroxymethyl)-5-methoxytetrahydro-2H-pyran-3-ol], the IC50 at human Gal-3 (hGal-3) was determined as 30 nM; at human Gal-1 (hGal-1), 1370 nM.

Take `CO[C@@H]1[C@@H](n2cc(-c3ccc(Cl)c(F)c3F)nn2)[C@@H](O)[C@@H](CO)O[C@@H]1Cc1cn([C@@H]2CCCC2(F)F)nn1` [Example 2.1.64.A, (2R,3R,4S,5R,6R)-4-(4-(4-chloro-2,3-difluorophenyl)-1H-1,2,3-triazol-1-yl)-6-((1-((R)-2,2-difluorocyclopentyl)-1H-1,2,3-triazol-4-yl)methyl)-2-(hydroxymethyl)-5-methoxytetrahydro-2H-pyran-3-ol]: the IC50 is 30 nM on human Gal-3 (hGal-3) and 940 nM on human Gal-1 (hGal-1).

As for `CO[C@@H]1[C@@H](n2cc(-c3ccc(Cl)c(F)c3F)nn2)[C@@H](O)[C@@H](CO)O[C@@H]1Cc1cn([C@H]2CCCC2(F)F)nn1` [Example 2.1.64.B, (2R,3R,4S,5R,6R)-4-(4-(4-chloro-2,3-difluorophenyl)-1H-1,2,3-triazol-1-yl)-6-((1-((S)-2,2-difluorocyclopentyl)-1H-1,2,3-triazol-4-yl)methyl)-2-(hydroxymethyl)-5-methoxytetrahydro-2H-pyran-3-ol], the IC50 at human Gal-3 (hGal-3) worked out at 30 nM; at human Gal-1 (hGal-1), 2340 nM.

As to `CO[C@@H]1[C@@H](n2cc(-c3ccc(Cl)c(F)c3F)nn2)[C@@H](O)[C@@H](CO)O[C@@H]1Cc1cn([C@@H]2COCC[C@H]2F)nn1` [Example 2.1.65.A, (2R,3R,4S,5R,6R)-4-(4-(4-chloro-2,3-difluorophenyl)-1H-1,2,3-triazol-1-yl)-6-((1-((3R,4R)-4-fluorotetrahydro-2H-pyran-3-yl)-1H-1,2,3-triazol-4-yl)methyl)-2-(hydroxymethyl)-5-methoxytetrahydro-2H-pyran-3-ol], the IC50 on human Gal-3 (hGal-3) is 60 nM; at human Gal-1 (hGal-1), 1800 nM.

Turning to `CO[C@@H]1[C@@H](n2cc(-c3ccc(Cl)c(F)c3F)nn2)[C@@H](O)[C@@H](CO)O[C@@H]1Cc1cn([C@@H]2CCOC[C@@H]2F)nn1` [Example 2.1.66.A, (2R,3R,4S,5R,6R)-4-(4-(4-chloro-2,3-difluorophenyl)-1H-1,2,3-triazol-1-yl)-6-((1-((3R,4R)-3-fluorotetrahydro-2H-pyran-4-yl)-1H-1,2,3-triazol-4-yl)methyl)-2-(hydroxymethyl)-5-methoxytetrahydro-2H-pyran-3-ol], the figures for the IC50 at human Gal-3 (hGal-3) and on human Gal-1 (hGal-1) were 10 nM and 570 nM, respectively.

For the compound `CO[C@@H]1[C@@H](n2cc(-c3ccc(Cl)c(F)c3F)nn2)[C@@H](O)[C@@H](CO)O[C@@H]1Cc1cn([C@H]2CCOC[C@H]2F)nn1` [Example 2.1.66.B, (2R,3R,4S,5R,6R)-4-(4-(4-chloro-2,3-difluorophenyl)-1H-1,2,3-triazol-1-yl)-6-((1-((3S,4S)-3-fluorotetrahydro-2H-pyran-4-yl)-1H-1,2,3-triazol-4-yl)methyl)-2-(hydroxymethyl)-5-methoxytetrahydro-2H-pyran-3-ol], the IC50 on human Gal-3 (hGal-3) worked out at 40 nM; at human Gal-1 (hGal-1), 2900 nM.

With `CO[C@@H]1[C@@H](n2cc(-c3ccc(Cl)c(F)c3F)nn2)[C@@H](O)[C@@H](CO)O[C@@H]1Cc1cn([C@@H]2CCOC[C@H]2F)nn1` [Example 2.1.66.C, (2R,3R,4S,5R,6R)-4-(4-(4-chloro-2,3-difluorophenyl)-1H-1,2,3-triazol-1-yl)-6-((1-((3S,4R)-3-fluorotetrahydro-2H-pyran-4-yl)-1H-1,2,3-triazol-4-yl)methyl)-2-(hydroxymethyl)-5-methoxytetrahydro-2H-pyran-3-ol], the IC50 on human Gal-3 (hGal-3) was 20 nM; at human Gal-1 (hGal-1), 950 nM.

As to `CO[C@@H]1[C@@H](n2cc(-c3ccc(Cl)c(F)c3F)nn2)[C@@H](O)[C@@H](CO)O[C@@H]1Cc1cn([C@H]2CCOC[C@@H]2F)nn1` [Example 2.1.66.D, (2R,3R,4S,5R,6R)-4-(4-(4-chloro-2,3-difluorophenyl)-1H-1,2,3-triazol-1-yl)-6-((1-((3R,4S)-3-fluorotetrahydro-2H-pyran-4-yl)-1H-1,2,3-triazol-4-yl)methyl)-2-(hydroxymethyl)-5-methoxytetrahydro-2H-pyran-3-ol], the IC50 was 10 nM on human Gal-3 (hGal-3) and 780 nM on human Gal-1 (hGal-1).

Turning to `CO[C@@H]1[C@@H](n2cc(-c3ccc(Cl)c(F)c3F)nn2)[C@@H](O)[C@@H](CO)O[C@@H]1Cc1cn([C@@H]2CCC[C@@H]2F)nn1` [Example 2.1.79.A, (2R,3R,4S,5R,6R)-4-(4-(4-chloro-2,3-difluorophenyl)-1H-1,2,3-triazol-1-yl)-6-((1-((1R,2S)-2-fluorocyclopentyl)-1H-1,2,3-triazol-4-yl)methyl)-2-(hydroxymethyl)-5-methoxytetrahydro-2H-pyran-3-ol], the IC50 on human Gal-3 (hGal-3) was 20 nM; on human Gal-1 (hGal-1), 1510 nM.

`CO[C@@H]1[C@@H](n2cc(-c3ccc(Cl)c(F)c3F)nn2)[C@@H](O)[C@@H](CO)O[C@@H]1Cc1cn([C@H]2CCC[C@H]2F)nn1` [Example 2.1.79.B, (2R,3R,4S,5R,6R)-4-(4-(4-chloro-2,3-difluorophenyl)-1H-1,2,3-triazol-1-yl)-6-((1-((1S,2R)-2-fluorocyclopentyl)-1H-1,2,3-triazol-4-yl)methyl)-2-(hydroxymethyl)-5-methoxytetrahydro-2H-pyran-3-ol]: the values for the IC50 on human Gal-3 (hGal-3) and at human Gal-1 (hGal-1) were 30 nM and 3160 nM, respectively.

In the case of `CO[C@@H]1[C@@H](n2cc(-c3ccc(Cl)c(F)c3F)nn2)[C@@H](O)[C@@H](CO)O[C@@H]1Cc1cn([C@H]2CCCC[C@H]2F)nn1` [Example 2.1.81.B, (2R,3R,4S,5R,6R)-4-(4-(4-chloro-2,3-difluorophenyl)-1H-1,2,3-triazol-1-yl)-6-((1-((1S,2R)-2-fluorocyclohexyl)-1H-1,2,3-triazol-4-yl)methyl)-2-(hydroxymethyl)-5-methoxytetrahydro-2H-pyran-3-ol], the IC50 was 40 nM on human Gal-3 (hGal-3) and 3050 nM on human Gal-1 (hGal-1).

These data come from patent publication US20240109930A1, “TRIAZOLYL-METHYL SUBSTITUTED ALPHA-D-GALACTOPYRANOSIDE DERIVATIVES” (Idorsia Pharmaceuticals Ltd, priority 2021, published 2024).
